Assay results taken from patent publication US20220073642A1, “METHODS OF USING SURUFATINIB IN TREATING ADVANCED PANCREATIC AND EXTRA-PANCREATIC NEUROENDOCRINE TUMORS” (HUTCHISON MEDIPHARMA LIMITED, priority 2020, published 2022).
Where “and” joins values, the source holds several entries; their conditions need not be identical. Identical values can stand only once.

What was measured:
advanced pancreatic NETs = assay: phase 1 study of surufatinib in patients from the United States; assay type: in vivo, human
Protocol: Although this trial was conducted fully in a Chinese patient population, the results appear to be applicable to Western patients. Encouraging results have been reported from an ongoing phase 1 study of surufatinib in patients from the United States with heavily treated advanced pancreatic NETs (4 median prior lines of therapy), with an objective response rate of 25.0% (4/16: 3 confirmed partial response and 1 unconfirmed partial response). The safety profile observed in this Western patient population was similar to those observed in the SANET-p trial, as well as in other clinical studies of surufatinib in NETs patients.
As compared with other trials involving patients with extra-pancreatic NETs, the population enrolled in this study was heterogenous. In addition, only Chinese patients were enrolled in this study, which may limit the extrapolation of the results to other populations: however, historically no ethnic differences in the efficacy of antiangiogenic agents for NETs have been reported.

NETs = assay: Phase I dose escalation clinical study, extension stage (NCT02133157); assay type: in vivo, human; details: 21 efficacy evaluable patients with NETs
From the text: This multi-center, open-label, dose-escalation phase I study investigated the safety, pharmacokinetic characteristics, and preliminary anti-tumor activity of surufatinib in patients with advanced solid tumors. The primary objective was to determine the maximum tolerated dose (MTD), recommended phase II trial dose (RPTD), and the safety profile of Surufatinib when administered to patients with advanced malignant solid tumors. A secondary objective was to evaluate the pharmacokinetic profile of Surufatinib, and exploratory objectives included evaluating the ORR among patients given Surufatinib therapy and determining whether biomarkers for angiogenesis might reflect any clinical efficacy shown by Surufatinib. A modified Fibonacci 3+3 construct was used to design this dose escalation study and determine the MTD of Surufatinib.
In addition, similar efficacy trends have also been shown in the Phase Ib/II study of patients with NETs (Jianming Xu et al. Clin Cancer Res. 25(12):3486-3494). […] Therefore, further clinical investigation of Surufatinib is valuable.

[1] = SANET-p Phase III study, safety and exposure (NCI CTCAE v4.03); details: N = 113
From the text: SANET-p (NCT02589821) is a randomized, double-blind, placebo-controlled Phase III study evaluating the efficacy and safety of surufatinib compared to placebo in patients with progressive, advanced (unresectable local progression or distant metastasis), well-differentiated pancreatic neuroendocrine tumors.
Continuous administration (every 4 weeks as a treatment cycle). Surufatinib can be taken with or without food and should be taken as a single administration per day. It is recommended to take the drug at the same time every day. If the patient vomits after dosing surufatinib, there is no need to make up.
During the treatment, physician should closely monitor the patients and adjust dosage according to the safety and tolerability of individual patients, including dose interruption, dose reduction or permanently discontinue treatment. The dose adjustment should follow the guidance of interruption first and then dose reduction.

[2] = SANET-ep Phase III study, safety and exposure (NCI CTCAE v4.03); assay type: in vivo, human; details: N = 129
Protocol: (§1) This study is a randomized, double-blind, placebo-controlled, multi-center Phase III study to assess the efficacy and safety of Surufatinib in treating advanced extra-pancreatic neuroendocrine tumors.
(§2) Surufatinib, 300 mg, once daily (QD), orally
(§3) Continuous administration (every 4 weeks as a treatment cycle).

[3] = system: advanced extra-pancreatic neuroendocrine tumors; assay: SANET-ep Phase III study, efficacy (RECIST 1.1); assay type: in vivo, human
From the text: as §1
The targeted population are progressive, locally advanced or distant metastatic extra-pancreatic NETs (including, but not limited to: lungs, thymus gland and gastrointestinal origins like stomach, duodenum, liver, jejunum, ileum, colon, caecum, vermiform appendix and rectum, and unknown origin) patients with no possibility of radical resection of tumor, and of pathologically with low or intermediate grade (G1 or G2). For Gastrointestinal neuroendocrine tumors (GI-NETs), G1 is defined as <2 mitoses/10 high-power field
(§4) [HPF] and/or <3% Ki-67 index; G2 is defined as 2-20/10 HPF and/or 3-20% Ki-67 index; for NETs originating from the lung and thymus gland, G1 is defined as <2 mitoses/10 HPF and no necrosis; G2 is defined as 2-10/10 HPF and/or foci of necrosis. NETs from origin other than GI-NET, lung and thymus, or from unknown origins should be graded according to the GI-NET grading criteria. If the mitotic ratio and Ki-67 index correspond to different grade, the higher grade should be used to assign classification. All patients must provide tumor samples for central pathology review to check as of whether the diagnostics and grade score comply with inclusion criteria. Patients must have radiological documentation of progression of disease within 12 months prior to randomization. Patients must have previously progressed no more than two types of systemic anti-tumor therapy, including long-acting somatostatin analogs (SSAs), interferon, PRRT (peptide receptor radionuclide therapy), mammalian target of rapamycin (mTOR) inhibitors or chemotherapy (all chemotherapies are deemed as a single therapy regardless of drug or time); patients who are unable or unwilling to receive such treatments are also eligible if all other criteria are met.
Approximately 273 patients will be randomly assigned (in 2:1 ratio) to the following treatment groups based on interactive web response system IWRS:
as §2, §3
(§5) According to the randomized result, the patients will receive continuous oral treatment, every 4-week treatment cycle until progression of disease occurs, intolerable toxicity or other protocol-specified end-of-treatment criteria is met.
(§6) In accordance with RECIST 1.1, the tumor should be assessed every 8 weeks (±3 days) within the first year and every 12 weeks (±3 days) after the patient has been treated for more than one year.
(§7) 1) Primary therapeutic endpoint: PFS (according to RECIST 1.1 criteria)
(§8) 2) Secondary therapeutic endpoint: Objective Response Rate of the tumor (ORR), Disease Control Rate (DCR), Duration of Response (DoR), Time to Response (TTR) and Overall Survival (OS) (according to RECIST 1.1 criteria)

[4] = Solubility of surufatinib; assay type: physicochemical
From the text: As used here, the term “surufatinib” (formerly named sulfatinib”)refers to N-(2-(dimethylamino)ethyl)-1-(3-(4-(2-methyl-1H-indol-5-yloxy)pyrimidin-2-ylamino)phenyl)methanesulfonamide or N-(2-(dimethylamino)ethyl)-1-(3-(4-(2-methyl-1H-indol-5-yloxy)pyrimidin-2-ylamino)phenyl)methanesulfonamide. Surufatinib is a small-molecule kinase inhibitor which mainly acts on VEGFRs-1, 2, 3, the FGFR1 and CSF1R. Surufatinib is a study drug formulated as an odorless, white or off-white powder in capsules, with strengths of 50 mg and 200 mg. […] Herein, “surufatinib” may be referred to as “drug,” “active agent,” “a therapeutically active agent,” or “API.”

[5] = system: advanced, well-differentiated pancreatic neuroendocrine tumors; assay: SANET-p Phase III study, efficacy (RECIST 1.1); assay type: in vivo, human; details: for Odds ratio, Disease control rate / Odds ratio, Objective response rate: vs placebo
From the text: as §4, with “The targeted population are progressive, locally advanced or distant metastatic, low- or intermediate grade (G1 or G2) pancreatic NETs patients. G1 is defined as <2 mitoses/10 high-power field [HPF]” for “[HPF]”, “index.” for “index; for NETs originating from the lung and thymus gland, G1 is defined as <2 mitoses/10 HPF and no necrosis; G2 is defined as 2-10/10 HPF and/or foci of necrosis. NETs from origin other than GI-NET, lung and thymus, or from unknown origins should be graded according to the GI-NET grading criteria.”
Approximately 195 patients will be randomly assigned (in 2:1 ratio) to the following treatment groups based on interactive web response system IWRS:
as §2, §3, §5, §6, §7, §8

[6] = treatment-related AE, safety set
[7] = treatment-related AE, safety population
[8] = ITT set, 95% CI, listed as surufatinib

Cc1cc2cc(Oc3ccnc(Nc4cccc(CS(=O)(=O)NCCN(C)C)c4)n3)ccc2[nH]1 [Surufatinib, N-(2-(dimethylamino)ethyl)-1-(3-((4-((2-methyl-1H-indol-5-yl)oxy)pyrimidin-2-yl)amino)phenyl)-methanesulfonamide]
objective response rate (advanced pancreatic NETs; advanced pancreatic NETs, 2/15): 13.3%
Disease control rate (advanced pancreatic NETs; advanced pancreatic NETs, 11/15): 73.3%
objective response rate (advanced pancreatic NETs; heavily treated advanced pancreatic NETs, 4/16 (3 confirmed, 1 unconfirmed partial response)): 25.0%
DCR (NETs): 85.7%
ORR (NETs): 38.1%
not evaluable for response (NETs): 3 patients
patients achieved PR (NETs): 8 patients
patients achieved SD (NETs): 10 patients
on-treatment deaths attributed to adverse events [1]: Two
Arthralgia, ≥Grade 3 [1, 6]: 0 n
Back pain, ≥Grade 3 [1, 6]: 0 n
Bilirubin conjugated increased, ≥Grade 3 [1, 6]: 0 n
Blood creatinine increased, ≥Grade 3 [1, 6]: 0 n
Blood lactate dehydrogenase increased, ≥Grade 3 [1, 6]: 0 n
Blood thyroid stimulating hormone increased, ≥Grade 3 [1, 6]: 0 n
Decreased appetite, ≥Grade 3 [1, 6]: 0 n
Dizziness, ≥Grade 3 [1, 6]: 0 n
Fatigue, ≥Grade 3 [1, 6]: 0 n
Haemoglobin increased, ≥Grade 3 [1, 6]: 0 n
Headache, ≥Grade 3 [1, 6]: 0 n
Hyperbilirubinaemia, ≥Grade 3 [1, 6]: 0 n
Hypercholesterolaemia, ≥Grade 3 [1, 6]: 0 n
Hypoalbuminaemia, ≥Grade 3 [1, 6]: 0 n
Hypothyroidism, ≥Grade 3 [1, 6]: 0 n
Nausea, ≥Grade 3 [1, 6]: 0 n
Occult blood positive, ≥Grade 3 [1, 6]: 0 n
Discontinuation due to proteinuria [2]: 1.6%
Discontinuation due to urine protein present [2]: 2.3%
hypertension resulting in dose interruption or reduction [2]: 15.5%
proteinuria resulting in dose interruption or reduction [2]: 29.5%
treatment discontinuation for adverse events [2]: 14.7%
Treatment-related adverse event, any grade ([2]; safety population): 97.7%
ALT increased, ≥Grade 3 [2, 7]: 3.1%
AST increased, ≥Grade 3 [2, 7]: 3.9%
Anemia, ≥Grade 3 [2, 7]: 4.7%
Hyperbilirubinemia, ≥Grade 3 [2, 7]: 3.9%
Hypertension, ≥Grade 3 [2, 7]: 36.4%
Protein urine present, ≥Grade 3 [2, 7]: 3.9%
Proteinuria, ≥Grade 3 [2, 7]: 19.4%
Duration of response ([3]; BIIRC-assessed): 5.6 months
Time to response ([3]; BIIRC-assessed): 2.9 months
Disease control rate ([3]; BIIRC-assessed, N = 126): 77.8%
objective response rate ([3]; BIIRC-assessed, N = 126): 7.9%
Best overall response: Partial response ([3]; Investigator-assessed, N = 126): 13 n
Disease control rate ([3]; Investigator-assessed, N = 126): 86.5%
objective response rate ([3]; Investigator-assessed, N = 126): 10.3%
median progression-free survival as assessed by the investigators ([3]; N = 129, 300 mg QD orally): 9.2 months
progression-free survival HR vs placebo, BIIRC-assessment ([3]; in vivo): 0.66
progression-free survival HR vs placebo, investigators ([3]; in vivo): 0.33
progression-free survival HR vs placebo, post-hoc adjudicated BIIRC results ([3]; in vivo): 0.57
Duration of response ([3]; investigator-assessed): 5.6 months
Time to response ([3]; investigator-assessed): 3.7 months
reduction of the risk of disease progression or death compared with placebo ([3]; investigators): 67%
HR for median progression-free survival, NETs of unknown or uncommon tumor origins ([3]; post-hoc subgroup analysis): 0.50
median progression-free survival, BIIRC-assessment ([3]; sensitivity analysis): 7.4 months
median progression-free survival, patients previously treated with everolimus ([3]; subgroup, 7.8% of patients): 7.4 months
solubility in methyl alcohol or ethyl alcohol ([4]; methyl alcohol or ethyl alcohol): slightly soluble
solubility in water ([4]; water): insoluble
Duration of response ([5]; BIIRC-assessed): 15.2 months
Time to response ([5]; BIIRC-assessed): 3.9 months
Best overall response: Non-complete response, non-progressive disease ([5]; BIIRC-assessed, N = 104): 0 n
Odds ratio, Disease control rate ([5]; BIIRC-assessed): 2.5
Odds ratio, Objective response rate ([5]; BIIRC-assessed): 8.8
PFS (BIIRC assessment), median ([5]; ITT set, N = 113): 13.9 month
PFS (Investigator's assessment), median ([5]; ITT set, N = 113, 300 mg QD orally): 10.9 month
PFS (BIIRC assessment), HR (Surufatinib/Placebo) ([5]; ITT set, 95% CI): 0.339 (0.209, 0.549)
PFS (Investigator's assessment), HR (Surufatinib/Placebo) ([5]; ITT set, 95% CI): 0.491 (0.319, 0.755)
PFS (BIIRC assessment), HR (Surufatinib/Placebo) [5, 8]: 0.34
PFS (Investigator's assessment), HR (Surufatinib/Placebo) [5, 8]: 0.49
DoR, median ([5]; Table 4, N = 15): 15.2 month
TTR, median ([5]; Table 4, N = 15): 3.9 month
Disease control rate, BIIRC-assessed ([5]; interim ITT set, N = 104): 84.6%
Disease control rate, investigator-assessed ([5]; interim ITT set, N = 104): 80.8%
Objective response rate, BIIRC-assessed ([5]; interim ITT set, N = 104): 14.4%
Objective response rate, investigator-assessed ([5]; interim ITT set, N = 104): 19.2%
median PFS longer than in the placebo cohort ([5]; investigator assessment): 7.2 months
reduction of the risk of disease progression/death vs placebo ([5]; investigator assessment): 50.9% and 51%
reduction of the risk of disease progression/death vs placebo ([5]; investigator assessment, listed as surufatinib): 51%
Duration of response ([5]; investigator-assessed): 7.4 months
Time to response ([5]; investigator-assessed): 3.8 months
Best overall response: Partial response ([5]; investigator-assessed, N = 104): 20 n
Odds ratio, Disease control rate ([5]; investigator-assessed): 2.1
Odds ratio, Objective response rate ([5]; investigator-assessed): 12.4
DCR, OR (odds ratio) vs placebo ([5]; investigator, 95% CI): 2.1 (0.9, 4.8)
ORR, OR (odds ratio) vs placebo ([5]; investigator, 95% CI): 12.4 (1.8, 522.8)
